Measurements published in patent US20260108484A1, “TREATMENT OF NEUROPATHIC PAIN IN CANINES” ([…] COMPANY, priority 2022, published 2026).

How the values were obtained:
[1] = tested on: voltage-gated calcium channel α2δ subunits; settings: cited from earlier work
[2] = tested on: CKCS symptomatic for CLM/SM; settings: cited from earlier work
dogs with CLM/SM = settings: affected dogs, placebo-controlled treatment trial; cited from earlier work
[3] = tested on: dogs with CLM/SM (neuropathic pain); assay: Pilot study and validation of the Questionnaire (CHASE score) in CLM/SM dogs; format: in vivo, dog
Experimental: Please think about how your dog has behaved over the past week and use the scale to tell us how well the phrases describe your dog or what he/she is doing.
Summary values for untransformed and unweighted scores across the five final questions are presented below.
Intervention by a board-certified neurologist and prescription of pregabalin at 5-10 mg/kg twice daily relieved clinical signs and reduced CHASE scores to within the normal range, indicating responsiveness of the questionnaire to standard-of-care medical treatment. […] Using the Questionnaire to solicit owner feedback on disease severity and its impacts on affect and quality of life in this manner, owners and the veterinary neurologist concurred on treatment effects in this 100% of cases. This is to be expected given the potency of pregabalin in the treatment of neuropathic pain; however, no owner assessment tool has ever been reported to detect said effects so sensitively. For example, in a randomized controlled study by Thofner et al. (2020), even the very high dose range of 13 to 19 mg/kg pregabalin yielded concurrence between veterinarian and owner in only 52% of assessments of dogs with CLM/SM.

## CC(C)C[C@H](CN)CC(=O)O [pregabalin]
[1]
  potency and binding affinity compared with gabapentin: better potency and binding affinity than gabapentin
[2]; CKCS symptomatic for CLM/SM, crossover placebo-controlled
  effect size: 0.45
[2]; liquid formulation of pregabalin, placebo phase 4.24
  numerical rating scale (NRS) mean score during treatment: 3.17 units
Dogs with CLM/SM
  phantom scratching: effectively reduce phantom scratching
[3]; 8 treated dogs, pregabalin 5-10 mg/kg twice daily
  treated dogs exhibiting improvements of at least 5 points: 100%
[3]; Treated CLM/SM dogs, n=8, untransformed and unweighted scores across the five final questions, pregabalin 5-10 mg/kg twice daily
  Questionnaire (CHASE) score, Mean: 4.4
[3]; each of the 8 treated dogs, pregabalin 5-10 mg/kg twice daily
  improvements in symptom severity on the Questionnaire: at least 5 points
[3]; equivalent to improvement of at least 5 points on the Questionnaire
  effect size: ≥ 1.04
